4 compounds from patent US20230278957A1, “TREX1 INHIBITORS AND USES THEREOF” (WAKE FOREST UNIVERSITY HEALTH SCIENCES, priority 2020, published 2023) can be followed below.

Entries after “also recorded” stand apart in the source; their conditions may differ. Read-outs that look alike come from different tables or passages of the source.

Common to all, as to format: biochemical
In test [1] the target is T1, recombinant hTREX1(1-242)WT (hT1) (Homo sapiens, UniProt Q9NSU2).
T1 construct: recombinant hTREX1(1-242)^WT
T1 sequence (Q9NSU2 1-242): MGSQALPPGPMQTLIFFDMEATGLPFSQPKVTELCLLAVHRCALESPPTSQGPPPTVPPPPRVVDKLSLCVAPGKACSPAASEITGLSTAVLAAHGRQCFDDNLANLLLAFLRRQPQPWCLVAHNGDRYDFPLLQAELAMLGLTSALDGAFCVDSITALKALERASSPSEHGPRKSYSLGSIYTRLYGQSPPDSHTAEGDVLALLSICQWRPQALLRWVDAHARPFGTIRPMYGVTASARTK
As to the kind of experiment: fluorescence-based exonuclease assay, hTREX1 IC50 and HTS. The protocol: FIG. 1: Determining IC50 of Candidate Compounds. […] Standard time-course reactions were prepared in 150 µL volumes containing vehicle or indicated concentrations of inhibitor (Panel A= 0.1-10 µM; Panel C= 1-50 µM), incubated 1 hr at room temperature, and 20 µL samples of each reaction taken at time-points of 0, 5, 10, 20, 30, 45, & 60 minutes and quenched in 20 µL of 15X SYBR Green. Fluorescence was measured, and fluorescence versus time plots were normalized to maximal initial fluorescence and background fluorescence. Plots were fitted with nonlinear regression, then initial velocities of each reaction interpolated and normalized to vehicle-only control reactions to give percent activity. Plots of inhibitor concentration versus percent activity were fit with nonlinear regression to interpolate compound IC50. Plots were generated in Prism (GraphPad) and combined in PowerPoint. Active compounds had IC50 determined in at least three separate experiments. Panels E-F: Gel Assay Validation of Hit Compound IC50. Several hit compounds, including those shown, had their IC50 confirmed via gel assay to validate efficacy of the fluorescence-based biochemical assay. Results of the gel and fluorescence assays were in agreement for all compounds tested. Standard time-course reactions containing nicked plasmid were prepared in 150 µL volumes with the indicated concentrations of inhibitor, and incubated at room temperature. Reaction samples were taken at indicated times, quenched, dried in vacuo, resuspended, then visualized by agarose gel electrophoresis. Control lanes containing supercoiled dsDNA plasmid (‘Plasmid’) and undegraded nicked dsDNA plasmid (‘Nicked’) are included. Low-MW residual bands are ssDNA plasmid leftover from TREX1 exonuclease activity.
We altered a reported fluorescence-based exonuclease assay^17,23 for the purposes of HTS. The assay parameters were optimized to limit materials use and maximize the dynamic range of the assay readout. We used this assay to perform a HTS of the three mentioned libraries against recombinant hTREX1(1-242)^WT, hereafter abbreviated as ‘hT1’. In the case of all libraries, compounds eliciting ≤50% activity at their indicated screening concentrations were identified as ‘candidates’.
The biochemical assay used for HTS was also applied to determining candidate IC50. Briefly, time-course reactions were performed for a range of concentrations for each candidate, and plots of fluorescence vs time were normalized to the initial fluorescence of the reaction and the plate-wide background fluorescence. This normalization helped address compounds with inherent effects on the fluorescent readout. Initial velocities were calculated from normalized plots and used to calculate percent activities relative to vehicle-only control reactions. Standard dose-response curves were then constructed to interpolate candidate IC50. […] Candidates that initially tested with IC50 ≤100 µM had their IC50 redetermined in two additional, independent experiments. […] To validate the efficacy of the fluorescence-based assay at determining IC50, several of the hit compounds had their IC50 confirmed using a gel assay previously described by our lab^23. Briefly, a dsDNA plasmid is nicked, the substrate is incubated with TREX1 which degrades off (partially or completely) the nicked strand, and the reaction is quenched in ethanol, dried in vacuo, and visualized via agarose gel electrophoresis. Example data of these validation assays is provided (FIG. 1, Panels E-F).

In test [2] the target is T2, TREX1 (Homo sapiens, UniProt Q9NSU2).
T2 sequence (Q9NSU2 1-242): T1 sequence (Q9NSU2 1-242)
As to the kind of experiment: gel-based ssDNA degradation assay, inhibition kinetics. As to conditions: 15 nM or 515 nM FAM-labeled 30-mer oligo.
Protocol: Reactions are incubated at room temperature for 20 min, quenched, dried in vacuo, resuspended, and visualized on a urea-polyacrylamide gel. Initial velocities of each reaction are calculated via densitometric analysis of the gel, and then normalized to vehicle control reactions to calculate percent activities. Dose-response plots are fitted with nonlinear regression to interpolate IC50.

For test [3], the target named is T3, hT1 (Homo sapiens, UniProt Q9NSU2).
T3 construct: recombinant hTREX1(1-242)^WT
T3 sequence (Q9NSU2 1-242): T1 sequence (Q9NSU2 1-242)
As to the kind of experiment: jump-dilution reversibility of inhibition. As to conditions: for reversibility classification: by IC50 ratio of jump-dilution. The protocol:
FIG. 4: Reversibility of Inhibition for Lead Compounds. Panel A: Summary chart of the results for each lead compound. IC50 ratios were calculated by dividing the […]. An IC50 ratio of 10 is expected for irreversible inhibitors, and the results were classified as follows: ≥ 5.0 → Irreversible, 2.0-5.0 → Ambiguous, 0.5-2.0 → Reversible. Panels B-G: Standard IC50 experiments were conducted with various concentrations of each lead compound. However, before enzyme addition to the reaction components the inhibitor or vehicle was pre-incubated with either the reaction components at ~1X the final concentration (‘Reaction Pre-Incubation’) or the enzyme at ~10X the final concentration (‘Enzyme Pre-Incubation’). The enzyme and reaction components were then combined to initiate reactions, and IC50 calculated as discussed earlier. TIM190 was included as an example of an irreversible inhibitor. Plots were generated in Prism (GraphPad), and figure was assembled in PowerPoint.
To determine whether our leads’ inhibition mechanisms were reversible, we utilized a strategy known as a ‘jump-dilution′^76. With this strategy, an inhibitor is initially incubated with the target at a high concentration, then, the inhibitor and target are diluted into reaction mix and the potency of the inhibitor is compared to a similar reaction without the pre-incubation step. If an inhibitor is covalent, time-dependent (slow-binding), or otherwise irreversible, then it will display potency consistent with the higher initial concentration, while reversible inhibitors’ potency is not meaningfully affected by the pre-incubation. We performed jump dilution experiments for our leads with our earlier described biochemical assay (FIG. 3). Under our conditions, irreversible inhibitors were expected to display a 10-fold potency increase in the jump-dilution reactions.

The target of test [4] is T4, recombinant wild-type human TREX2(1-236) (hT2) (Homo sapiens, UniProt Q9BQ50).
T4 construct: recombinant wild-type human TREX2(1-236), hereafter ‘hT2’
T4 sequence (Q9BQ50 1-236): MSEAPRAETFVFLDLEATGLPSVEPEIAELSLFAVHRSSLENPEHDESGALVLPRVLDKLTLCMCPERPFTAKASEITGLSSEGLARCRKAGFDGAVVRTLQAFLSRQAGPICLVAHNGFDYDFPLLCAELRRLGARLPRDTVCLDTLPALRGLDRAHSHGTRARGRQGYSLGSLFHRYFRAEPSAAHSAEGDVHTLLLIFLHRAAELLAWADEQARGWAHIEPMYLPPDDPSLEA
As to the kind of experiment: fluorescence-based exonuclease assay, counter-screen against hTREX2. As to conditions: up to an inhibitor concentration of 100 µM. How it is done: (§1) FIG. 3: Counter-Screening Hit Compounds Against mTREX1 and hTREX2 Enzymes. Panel A: Summary chart of lead compounds’ IC50 against hTREX1 vs mTREX1 versus hTREX2. Panels B-F: Overlay of lead compounds’ dose-response curves for hTREX1, mTREX1, and hTREX2. Dose-response curves were generated as described earlier. Each dose-response curve is representative of three IC50 experiments. Graphs were prepared in Prism (GraphPad), and figure was assembled in PowerPoint.
(§2) We were also interested in the activity of our leads against enzymes more closely related to hT1, namely murine TREX1 and the highly related human TREX2 enzyme. mTREX1 was of interest, since future studies of the lead compounds would presumably take place in a murine model. hTREX2, which also functions as a 3′➔5′ exonuclease, is primarily expressed in keratinocytes (while TREX1 expression is more ubiquitous), and its mutation is not associated with an autoimmune phenotype, but instead results in a hypermutator phenotype in the skin that is conditional upon exposure to ultraviolet radiation^10,72-74. For mTREX1, cross-activity was preferred to allow later efficacy studies in a murine model. […] We determined the IC50 of lead compounds for recombinant wild-type murine TREX1(1-242), hereafter ‘mT1’, and for recombinant wild-type human TREX2(1-236), hereafter ‘hT2’ (FIG. 2). […]
A general note: Counterscreens check selectivity or assay interference.

The target in test [5] is T5, recombinant wild-type murine TREX1(1-242) (mT1) (Mus musculus, UniProt Q91XB0).
T5 construct: recombinant wild-type murine TREX1(1-242), hereafter ‘mT1’
T5 sequence (Q91XB0 1-242): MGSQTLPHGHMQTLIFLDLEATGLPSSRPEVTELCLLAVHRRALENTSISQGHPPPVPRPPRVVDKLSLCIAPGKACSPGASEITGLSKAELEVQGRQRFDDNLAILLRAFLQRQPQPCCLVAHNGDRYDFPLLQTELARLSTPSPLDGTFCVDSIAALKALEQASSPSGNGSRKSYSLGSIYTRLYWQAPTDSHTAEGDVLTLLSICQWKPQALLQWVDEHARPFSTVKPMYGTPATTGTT
Put plainly: fluorescence-based exonuclease assay, counter-screen against mTREX1. As to conditions: up to an inhibitor concentration of 100 µM. How it is done: as §1, §2

The mark [6] stands for this setting: experiment 1, read-out: IC50 #1.
[7] abbreviates: experiment 2, read-out: IC50 #2.
Where [8] appears, read: experiment 3, read-out: IC50 #3.
The mark [9] stands for this setting: median of three independent experiments, read-out: Median IC50.

With `O=C1c2ccccc2C(=O)c2c1cc(S(=O)(=O)O)c(O)c2O` [TIM009], the IC50 – broadly, the concentration that gives 50% inhibition – in test [1] (setting [6]) came out at 0.3 µM; in test [1] (setting [7]), 1.1 µM; in test [1] (setting [8]), 1.5 µM; in test [1] (setting [9]), 1.1 µM. Moreover, in test [2], the “mechanism of inhibition classification” value is on record as “mixed inhibitor”.
Take `O=C(O)c1ccc(-c2ccc(/C=c3\sc4nc5cc(Br)cnc5n4c3=O)o2)cc1` [TIM190]: the IC50 in test [1] (setting [6]) came out at 10.7 µM; in test [1] (setting [7]), 10.7 µM; in test [1] (setting [8]), 13.5 µM; in test [1] (setting [9]) it was 10.7 µM. For the same compound, the reversibility classification result in test [3] is “irreversible”.
With `Cc1ccc(N2NC(=O)/C(=C/c3ccc(-c4ccc5c(c4)C(=O)NC5=O)o3)C2=O)cc1C` [TIM207], the half-maximal inhibitory concentration (IC50) was 13.5 µM in test [1] (setting [6]), 7.8 µM in test [1] (setting [7]), 8.9 µM in test [1] (setting [8]) and 8.9 µM in test [1] (setting [9]). For the same compound, the reversibility classification result in test [3] is “ambiguous”. Also, the “increase in potency as a result of the jump-dilution” value in test [3] (enzyme pre-incubation vs control reaction, 10-fold expected for irreversible inhibitors) is on record as 2.9 fold.
Take `O=C(c1ccc2nonc2c1)N1CCCCC1c1nc2cc(F)ccc2[nH]1` (centres unmarked) [TIM218]: the “inhibition of hT1 (in words)” value in test [1] is reported as “did inhibit hT1”. In addition, the 50% inhibitory concentration (IC50) in test [1] (setting [6]) amounted to 12.7 µM; in test [1] (setting [7]), 7.6 µM; in test [1] (setting [8]) it was 17.8 µM; in test [1] (setting [9]) it was 12.7 µM. The “inhibition of hT2” value in test [4] is “no detectable inhibition”. In addition, the “inhibition of mT1” value in test [5] was “no detectable inhibition; also recorded: does not inhibit mT1”.
